Structures can show the parent of a compound that is named as a salt. Where two headings read alike, the source gives them in different places.
How the values were obtained:
[1] = target: T1, rat histamine H3 receptor (Rattus norvegicus, UniProt Q9QYN8); assay: Rat H3 radioligand binding ([3H]-N-alpha-methylhistamine, CHO-A3 cell membranes, SPA)
T1 construct: encoding the entire 445-amino-acid rat histamine H3 receptor; expressed in transfected cells
In short: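 Membranes from CHO-A3 cells stably expressing rat H3 (10 μg protein) incubated 4 h at room temperature in 50 mM Tris-HCl pH 7.4, 5 mM MgCl2, 0.1% BSA with ~1 nM [3H]-N-alpha-methylhistamine and compound (0.01 nM-30 μM). Bound radioligand read by scintillation proximity; nonspecific binding with 10 μM clobenpropit.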

[2] = target: T2, human H3 receptor (Homo sapiens, UniProt Q9Y5N1); assay: Human H3 radioligand binding ([3H]-N-alpha-methylhistamine, CHO cell membranes, SPA); conditions: Table B, binding constant as letter class
T2 construct: expressed in transfected cells
T2 sequence (Q9Y5N1 whole entry): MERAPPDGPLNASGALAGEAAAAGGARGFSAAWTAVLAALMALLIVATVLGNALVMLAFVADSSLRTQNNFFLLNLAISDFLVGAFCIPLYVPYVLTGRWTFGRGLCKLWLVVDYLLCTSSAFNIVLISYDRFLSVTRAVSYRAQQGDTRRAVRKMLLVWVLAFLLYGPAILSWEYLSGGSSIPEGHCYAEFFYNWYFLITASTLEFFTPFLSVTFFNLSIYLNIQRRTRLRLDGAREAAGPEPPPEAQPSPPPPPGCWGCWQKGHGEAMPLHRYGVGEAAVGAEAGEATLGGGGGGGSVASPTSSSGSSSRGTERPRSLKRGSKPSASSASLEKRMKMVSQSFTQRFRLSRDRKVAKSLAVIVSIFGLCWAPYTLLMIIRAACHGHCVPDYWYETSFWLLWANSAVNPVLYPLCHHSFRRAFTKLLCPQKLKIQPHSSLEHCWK
In short: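 CHO cell membranes expressing human H3 (10 μg protein/well) incubated 4 h at room temperature, in the dark, with ~1 nM [3H]-N-alpha-methylhistamine, compounds (0.01 nM-30 μM) and SPA beads in 50 mM Tris HCl pH 7.4, 5 mM MgCl2, 0.1% BSA. Non-specific binding defined with 10 μM clobenpropit.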

[3] = Table B, binding constant as letter class, read-out: rat H3 Ki

T1 sequence (Q9QYN8 whole entry): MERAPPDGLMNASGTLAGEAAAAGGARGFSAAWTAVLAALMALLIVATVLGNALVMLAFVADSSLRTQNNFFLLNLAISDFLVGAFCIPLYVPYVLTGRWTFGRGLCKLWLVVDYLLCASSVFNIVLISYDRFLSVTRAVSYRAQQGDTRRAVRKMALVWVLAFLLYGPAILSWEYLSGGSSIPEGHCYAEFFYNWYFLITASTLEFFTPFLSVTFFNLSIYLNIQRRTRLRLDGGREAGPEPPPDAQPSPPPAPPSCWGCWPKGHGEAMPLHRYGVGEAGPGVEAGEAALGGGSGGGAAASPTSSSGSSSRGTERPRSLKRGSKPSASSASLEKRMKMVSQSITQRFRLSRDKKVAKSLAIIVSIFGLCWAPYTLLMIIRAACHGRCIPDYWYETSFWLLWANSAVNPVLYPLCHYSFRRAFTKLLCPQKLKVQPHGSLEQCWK

Structure (SMILES) | melting point | Ki [1, 3] [nM] | Ki [2] [nM] | Ki [1] [nM]
Cc1onc2c(=O)[nH]nc(-c3ccc(OCCCN4CCCCC4)cc3)c12 [Example 207, 3-Methyl-4-[4-(3-piperidin-1-yl-propoxy)-phenyl]-6H-isoxazolo[3,4-d]pyridazin-7-one] | 178 to 179 °C | 0.1 to 100 | 0.1 to 100 | –
O=C1CCC(c2ccc(OC3CCN(C4CCC4)CC3)cc2)=NN1 [Example 150, 6-[4-(1-Cyclobutyl-piperidin-4-yloxy)-phenyl]-4,5-dihydro-2H-pyridazin-3-one] | 196 to 198 °C | 0.1 to 100 | 0.1 to 100 | –
C[C@@H](COc1ccc(-c2cn[nH]c(=O)c2)cc1)CN1CCCCC1 [Example 228, 5-[4-((R)-2-Methyl-3-piperidin-1-yl-propoxy)-phenyl]-2H-pyridazin-3-one] | 160 to 163 °C | 101 to 500 | 0.1 to 100 | –
O=c1[nH]nc(-c2ccc(OCCCN3CCCCC3)cc2)c2c1CCC2 [Example 133, 4-[4-(3-Piperidin-1-yl-propoxy)-phenyl]-2,5,6,7-tetrahydro-cyclopenta[d]pyridazin-1-one] | 134 °C (dec.) | 0.1 to 100 | 0.1 to 100 | –
O=c1ccc(-c2ccc(OCC(O)CN3CCCCC3)cc2)n[nH]1 (stereo not shown) [Example 255, 6-[4-(2-Hydroxy-3-piperidin-1-yl-propoxy)-phenyl]-2H-pyridazin-3-one] | 185 °C | 101 to 500 | 101 to 500 | –
C[C@@H]1CCCN1CCCOc1ccc(C2=NNC(=O)CC2(C)C)cc1 [Example 182, 5,5-Dimethyl-6-{4-[3-((R)-2-methyl-pyrrolidin-1-yl)-propoxy]-phenyl}-4,5-dihydro-2H-pyridazin-3-one] | 118 to 121 °C | 0.1 to 100 | 0.1 to 100 | –
CC1CC(=O)NN=C1c1ccc(OC2CCN(C3CCC3)CC2)cc1 (racemic) [Example 189, 6-[4-(1-Cyclobutyl-piperidin-4-yloxy)-phenyl]-5-methyl-4,5-dihydro-2H-pyridazin-3-one] | 163 to 165 °C | – | – | 0.1 to 100
C[C@H](COc1ccc(-c2cn[nH]c(=O)c2)cc1)CN1CCC[C@H]1C [Example 225, 5-{4-[(S)-2-Methyl-3-((R)-2-methyl-pyrrolidin-1-yl)-propoxy]-phenyl}-2H-pyridazin-3-one] | 154 to 156 °C | – | – | 0.1 to 100
C[C@@H](COc1ccc(-c2cn[nH]c(=O)c2)cc1)CN1CCC[C@H]1C [Example 226, 5-{4-[(R)-2-Methyl-3-((R)-2-methyl-pyrrolidin-1-yl)-propoxy]-phenyl}-2H-pyridazin-3-one] | 130 to 133 °C | – | – | 0.1 to 100
O=C1C2CC2C(c2ccc(OC3CCN(C4CCC4)CC3)cc2)=NN1c1ccc(F)cc1 (stereo not shown) (as salt: HCl) [Example 253, 5-[4-(1-Cyclobutyl-piperidin-4-yloxy)-phenyl]-3-(4-fluoro-phenyl)-3,4-diaza-bicyclo[4.1.0]hept-4-en-2-one] | 147 to 149 °C | – | – | –
C[C@@H]1CCCN1CCCOc1ccc(-c2nn(Cc3ccc(Cl)cc3)c(=O)c3ccsc23)cc1 (as salt: HCl) [Example 38, 5-(4-Chloro-benzyl)-7-{4-[3-((R)-2-methyl-pyrrolidin-1-yl)-propoxy]-phenyl}-5H-thieno[2,3-d]pyridazin-4-one] | 223 to 224 °C | – | – | –
O=c1ccc(-c2ccccc2)nn1-c1ccc(OC2CCN(C3CCC3)CC2)nc1 (as salt: fumarate) [Example 203, 2-[6-(1-Cyclobutyl-piperidin-4-yloxy)-pyridin-3-yl]-6-phenyl-2H-pyridazin-3-one] | 155 to 159 °C | – | – | –
Cn1nc(-c2ccc(OCCCN3CCCCC3)cc2)ccc1=O (as salt: HCl) [Example 2, 2-Methyl-6-[4-(3-piperidin-1-yl-propoxy)-phenyl]-2H-pyridazin-3-one] | 200 to 201 °C | – | – | –
Cc1cc(-c2ccc(OCCCN3CCCCC3)cc2)nn(Cc2ccccc2)c1=O (as salt: HCl) [Example 44, 2-Benzyl-4-methyl-6-[4-(3-piperidin-1-yl-propoxy)-phenyl]-2H-pyridazin-3-one] | 232 to 233 °C | – | – | –
C[C@@H]1CCCN1CCCOc1ccc(C2=NNC(=O)C3CC23)cc1 (mixture of isomers) (as salt: HCl) [Example 243, 5-{4-[3-((R)-2-Methyl-pyrrolidin-1-yl)-propoxy]-phenyl}-3,4-diaza-bicyclo[4.1.0]hept-4-en-2-one] | 136 to 139 °C | – | – | –
C[C@@H]1CCCN1CCCOc1ccc(-c2ccc(=O)n(CCF)n2)cc1 (as salt: hydrochloride) [Example 118, 2-(2-Fluoro-ethyl)-6-{4-[3-((R)-2-methyl-pyrrolidin-1-yl)-propoxy]-phenyl}-2H-pyridazin-3-one] | 135 to 136 °C | – | – | –
C[C@@H]1CCCN1CCCOc1ccc2c(c1)CCC1CC(=O)NN=C21 (stereo partly shown) (as salt: HCl) [Example 212, 8-[3-(2-Methyl-pyrrolidin-1-yl)-propoxy]-4,4a,5,6-tetrahydro-2H-benzo[h]cinnolin-3-one] | 193 to 195 °C | – | – | –
CC1CC(c2ccc(OCCCN3CCC[C@H]3C)cc2)=NNC1=O (stereo partly drawn) (as salt: HCl) [Example 121, 4-Methyl-6-{4-[3-((R)-2-methyl-pyrrolidin-1-yl)-propoxy]-phenyl}-4,5-dihydro-2H-pyridazin-3-one] | 201 to 203 °C | – | – | –
Cc1cc(-c2ccc(OCCCN3CCC[C@H]3C)cc2)nn(C)c1=O (as salt: HCl) [Example 40, 2,4-Dimethyl-6-{4-[3-((R)-2-methyl-pyrrolidin-1-yl)-propoxy]-phenyl}-2H-pyridazin-3-one] | 175 to 176 °C | – | – | –
CCCn1nc(-c2ccc(OCCCN3CCC(N(C)C)CC3)cc2)c2sccc2c1=O (as salt: HCl) [Example 35, 7-{4-[3-(4-Dimethylamino-piperidin-1-yl)-propoxy]-phenyl}-5-propyl-5H-thieno[2,3-d]pyridazin-4-one] | 207 to 209 °C | – | – | –
Cn1nc(-c2ccc(OCCCN3CCC[C@H]3CO)cc2)c2c(c1=O)CCCC2 (as salt: HCl) [Example 124, 4-{4-[3-((S)-2-Hydroxymethyl-pyrrolidin-1-yl)-propoxy]-phenyl}-2-methyl-5,6,7,8-tetrahydro-2H-phthalazin-1-one] | 120 to 122 °C | – | – | –
Cn1nc(-c2ccc(OCC3CCNCC3)cc2)c2ccccc2c1=O (as salt: HCl) [Example 63, 2-Methyl-4-[4-(piperidin-4-ylmethoxy)-phenyl]-2H-phthalazin-1-one] | 207 to 209 °C | – | – | –
C[C@@H]1CCCN1CCCOc1ccc(-c2n[nH]c(=O)cc2-c2ccccn2)cc1 (as salt: hydrochloride) [Example 112, 6-{4-[3-((R)-2-Methyl-pyrrolidin-1-yl)-propoxy]-phenyl}-5-pyridin-2-yl-2H-pyridazin-3-one] | 234 °C (dec.) | – | – | –
C[C@@H]1CCCN1CCCOc1ccc(-c2nn(C)c(=O)c3ccccc23)cc1 (as salt: HCl) [Example 49, 2-Methyl-4-{4-[3-((R)-2-methyl-pyrrolidin-1-yl)-propoxy]-phenyl}-2H-phthalazin-1-one] | 216 to 217 °C | – | – | –
CC1CC(=O)NN=C1c1ccc(OCCCN2CCCC2)cc1 (racemic) (as salt: HCl) [Example 198, 5-Methyl-6-[4-(3-pyrrolidin-1-yl-propoxy)-phenyl]-4,5-dihydro-2H-pyridazin-3-one] | 161 to 163 °C | – | – | –
